The subject of data set [1] is BV-2 cells. Briefly: MTT cell viability assay. It counts as cell-based, murine. The note with it: 5 μM compound, % of LPS, mean ± SD. The protocol: (§1) 3-(4,5-dimethylthiazol-2-yl)-2,5-diphenyl-tetrazolium bromide (MTT) assay was performed to evaluate the cytotoxicity of the samples to the microglia. BV2 cells at the density of 4 × 10^4 cells /well were seeded in the 96 well plate and incubated for 24 h. Seeded cells were pre-treated with different concentration of the samples, and LPS (100 ng/ml) activation was performed after 30 min of compound treatment. Treated plate were incubated for 24 h in the incubator and nitric oxide assay and cell viability assay was performed. Treated cell’s conditioned medium was used to evaluate the NO assay, and the attached cells were used to evaluate the cell viability assay. 50 µL of conditioned medium (CM) from treated cells were transferred to a new 96 well plate for NO assay. This CM was mixed with the equal volume of the mixture of Gries reagent ((1% sulfanilamide and 0.1% N-1-napthylethylenediamine dihydrochloride). NaNO2 was used as standard and the colorimetric change were evidenced by measuring its OD at 540 nm in a microplate reader. The cells in the plate were incubated for 1 h with MTT solution making it the final concentration of […]. Blue stained cells were incubated with 200 ul of DMSO and the solution get changed to purple/formazan color and it was observed by measuring the absorbance at 570 nm in a microplate reader.NG-mono-methyl-L-arginine (L-NMMA), a well-known nitric oxide synthase (NOS) inhibitor, was used as a positive control.
Background: Tetrazolium assays rely on reduction of a dye to a coloured formazan, in cell work by metabolically active cells.

For data set [2], the target named is GSK3β (Homo sapiens, UniProt P49841). The data set is described as follows: GSK3β radiolabelled kinase assay (% residual activity, IC50, ATP competition). It counts as biochemical. As to conditions: at 10 μM compound.
Chain of GSK3β (P49841 whole entry): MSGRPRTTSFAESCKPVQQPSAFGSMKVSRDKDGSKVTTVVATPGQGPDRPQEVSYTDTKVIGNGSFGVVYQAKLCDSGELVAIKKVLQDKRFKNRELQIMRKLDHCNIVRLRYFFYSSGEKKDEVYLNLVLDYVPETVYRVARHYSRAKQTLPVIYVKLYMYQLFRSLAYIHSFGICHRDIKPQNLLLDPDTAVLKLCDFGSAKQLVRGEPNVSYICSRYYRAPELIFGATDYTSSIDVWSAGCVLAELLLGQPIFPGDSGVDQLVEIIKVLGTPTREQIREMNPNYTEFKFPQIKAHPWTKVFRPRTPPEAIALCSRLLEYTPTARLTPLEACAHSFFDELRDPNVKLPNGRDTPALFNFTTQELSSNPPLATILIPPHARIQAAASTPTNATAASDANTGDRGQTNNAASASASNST
The subject of data set [3] is NO production in LPS-activated BV-2 cells. Briefly: NO production assay (Griess) in LPS-activated BV-2 cells. It counts as cell-based, murine. As to conditions: read-out: NO Inhibition IC50. The protocol:
as §1
Background: Griess reagent forms a coloured azo dye with nitrite.

The target in data set [4] is T1, TRPM7/CHAK1 (Homo sapiens, UniProt Q96QT4).
T1 construct: purchased Reaction Biology Corp
T1 sequence (Q96QT4 whole entry): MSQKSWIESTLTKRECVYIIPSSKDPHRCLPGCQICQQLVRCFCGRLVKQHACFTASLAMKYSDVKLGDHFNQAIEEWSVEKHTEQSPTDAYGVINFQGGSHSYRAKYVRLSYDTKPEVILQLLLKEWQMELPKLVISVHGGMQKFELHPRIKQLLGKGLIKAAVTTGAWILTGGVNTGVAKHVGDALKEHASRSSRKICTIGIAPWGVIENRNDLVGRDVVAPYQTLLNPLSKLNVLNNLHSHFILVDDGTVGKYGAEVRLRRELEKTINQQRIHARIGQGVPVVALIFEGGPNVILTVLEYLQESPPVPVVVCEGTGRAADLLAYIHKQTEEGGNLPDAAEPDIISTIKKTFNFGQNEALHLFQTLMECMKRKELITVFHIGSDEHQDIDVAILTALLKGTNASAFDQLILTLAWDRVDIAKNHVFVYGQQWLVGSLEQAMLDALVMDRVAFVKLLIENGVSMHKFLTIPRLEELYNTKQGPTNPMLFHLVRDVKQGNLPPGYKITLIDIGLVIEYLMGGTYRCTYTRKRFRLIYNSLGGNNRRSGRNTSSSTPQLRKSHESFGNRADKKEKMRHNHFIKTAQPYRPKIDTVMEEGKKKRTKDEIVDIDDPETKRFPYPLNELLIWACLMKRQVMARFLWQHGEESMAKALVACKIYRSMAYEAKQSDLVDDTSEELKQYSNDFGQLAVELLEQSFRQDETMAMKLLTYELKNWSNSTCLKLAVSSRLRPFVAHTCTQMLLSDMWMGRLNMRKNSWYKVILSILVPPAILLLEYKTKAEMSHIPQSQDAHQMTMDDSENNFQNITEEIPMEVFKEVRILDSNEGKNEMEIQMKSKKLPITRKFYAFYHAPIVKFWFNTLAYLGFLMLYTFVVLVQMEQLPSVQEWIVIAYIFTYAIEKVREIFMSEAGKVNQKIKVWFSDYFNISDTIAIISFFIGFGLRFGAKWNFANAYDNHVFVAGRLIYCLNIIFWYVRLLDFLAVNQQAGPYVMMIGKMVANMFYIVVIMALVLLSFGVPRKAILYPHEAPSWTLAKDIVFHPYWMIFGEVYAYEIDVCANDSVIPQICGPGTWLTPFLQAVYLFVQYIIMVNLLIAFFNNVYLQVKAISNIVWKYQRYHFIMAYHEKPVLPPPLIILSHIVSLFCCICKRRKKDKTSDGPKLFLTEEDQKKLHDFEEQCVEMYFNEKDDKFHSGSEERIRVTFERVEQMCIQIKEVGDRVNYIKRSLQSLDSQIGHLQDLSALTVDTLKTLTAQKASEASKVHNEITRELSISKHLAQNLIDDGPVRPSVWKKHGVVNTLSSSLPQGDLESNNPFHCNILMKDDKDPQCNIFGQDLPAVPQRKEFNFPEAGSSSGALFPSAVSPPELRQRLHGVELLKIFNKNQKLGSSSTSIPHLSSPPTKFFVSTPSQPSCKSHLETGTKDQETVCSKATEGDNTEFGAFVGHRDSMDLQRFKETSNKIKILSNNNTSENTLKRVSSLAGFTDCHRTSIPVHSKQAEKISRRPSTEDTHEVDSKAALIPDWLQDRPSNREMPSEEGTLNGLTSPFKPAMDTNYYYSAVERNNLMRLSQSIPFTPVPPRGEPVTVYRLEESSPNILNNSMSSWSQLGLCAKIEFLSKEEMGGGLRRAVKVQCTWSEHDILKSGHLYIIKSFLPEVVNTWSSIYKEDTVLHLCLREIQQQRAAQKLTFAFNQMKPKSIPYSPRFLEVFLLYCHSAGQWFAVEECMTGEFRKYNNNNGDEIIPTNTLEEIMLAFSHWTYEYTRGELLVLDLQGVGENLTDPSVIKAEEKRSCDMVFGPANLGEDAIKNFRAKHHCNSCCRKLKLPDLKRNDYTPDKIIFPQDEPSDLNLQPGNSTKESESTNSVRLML
The data set is described as follows: Kinase panel assay (radiolabelled). It counts as biochemical. The note with it: control NH125. The protocol:
(§2) Every inhibitory activity of tested compounds was measured by radiolabelled method of Reaction Biology Corp). The radiolabelled ATP ([γ-^33P] ATP) replaced a substrate with ^33P-phosphorylated substrate so that the activity of a kinase was measured from the radiolabelled phosphorylated substrate. Kinase panel assay was tested at 30 μM testing compounds with an ATP concentration of 10 μM and a substrate concentration of 10 μM. % Residual activity against GSK3β was measured at 10 uM compounds 1 and 2. […] Curve fits of control compounds were performed where the enzyme activities at the highest concentration of compounds were less than 65%. The concentration of DMSO was controlled and raw data, % kinase activity was calculated relative to DMSO controls.

Data set [5] addresses T2, PI3KC2A (Homo sapiens, UniProt O00443).
T2 construct: purchased Reaction Biology Corp
Briefly: Kinase panel assay (lipid kinase). The note with it: read-out: IC50 (M) of Control (+). The class given is biochemical. The protocol: as §2

The nature of data set [6]: MTT cell viability assay. It counts as cell-based, murine. As to conditions: mouse, BV-2 microglia cells (LPS-activated), mean ± SD. The protocol: as §1
In data set [7] the test system is COX-2. The data set is described as follows: Western blot of COX-2 in LPS-induced BV-2 cells. The class given is cell-based, murine. The note with it: 0.01 to 1 uM. The protocol:
(§3) Western blot analysis was performed to see the protein expression of the iNOS and COX-2 in the BV2 cells. BV2 cells were seeded in a 6 well plate at the density of 6 × 10^5 cells/well overnight and cells were treated as mentioned earlier in the cell treatment section and this time treatment was performed for 6 h only. After 6 h, cells were harvested and lysed with lysis buffer containing (RIPA, protease inhibitor & phosphatase inhibitor), protein estimation was performed using biorad assay and the 30 µg of total protein was separated by 8% SDS-PAGE gel electrophoresis, transferred to nitrocellulose membranes, and incubated with primary antibodies against tubulin, iNOS, COX-2, and α-tubulin. […] membranes were incubated with horseradish peroxidase-conjugated secondary antibodies, and protein bands were visualized using ECL Western Blotting Detection Reagents (Amersham Pharmacia Biotech). Quantitative analysis of the protein bands was quantified using Image Master 2D Elite software (version 3.1, Amersham Pharmacia Biotech).
In general terms: Immunoblotting shows a protein as a band on a membrane.

Data set [8] has as its system iNOS. Briefly: Western blot of iNOS in LPS-induced BV-2 cells. The class given is cell-based, murine. The note with it: 0.01 to 1 uM, LPS-induced BV-2 cells. The protocol: as §3
Data set [9] concerns the target T3, PDK2/PDHK2 (Homo sapiens, UniProt Q15119).
T3 construct: purchased Reaction Biology Corp
Briefly: Kinase panel assay (radiolabelled). The class given is biochemical. The note with it: control GW5074. The protocol:
as §2

The target of data set [10] is T4, PDK3/PDHK3 (Homo sapiens, UniProt Q15120).
T4 construct: purchased Reaction Biology Corp
T4 sequence (Q15120 whole entry): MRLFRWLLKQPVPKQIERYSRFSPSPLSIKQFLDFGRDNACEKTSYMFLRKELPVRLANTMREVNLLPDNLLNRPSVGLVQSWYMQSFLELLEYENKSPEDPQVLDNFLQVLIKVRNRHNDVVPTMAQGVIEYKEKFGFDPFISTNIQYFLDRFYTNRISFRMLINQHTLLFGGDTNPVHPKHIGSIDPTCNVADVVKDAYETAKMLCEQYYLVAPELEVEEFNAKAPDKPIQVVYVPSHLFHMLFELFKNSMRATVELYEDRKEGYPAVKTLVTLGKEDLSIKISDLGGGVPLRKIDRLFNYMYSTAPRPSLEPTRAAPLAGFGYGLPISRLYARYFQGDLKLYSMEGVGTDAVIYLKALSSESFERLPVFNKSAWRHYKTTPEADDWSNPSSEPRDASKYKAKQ
The data set is described as follows: Kinase panel assay (radiolabelled). It counts as biochemical. As to conditions: control GW5074. The protocol:
as §2

The target of data set [11] is T5, PDK1/PDHK1 (Homo sapiens, UniProt Q15118).
T5 construct: purchased Reaction Biology Corp
T5 sequence (Q15118 29-436): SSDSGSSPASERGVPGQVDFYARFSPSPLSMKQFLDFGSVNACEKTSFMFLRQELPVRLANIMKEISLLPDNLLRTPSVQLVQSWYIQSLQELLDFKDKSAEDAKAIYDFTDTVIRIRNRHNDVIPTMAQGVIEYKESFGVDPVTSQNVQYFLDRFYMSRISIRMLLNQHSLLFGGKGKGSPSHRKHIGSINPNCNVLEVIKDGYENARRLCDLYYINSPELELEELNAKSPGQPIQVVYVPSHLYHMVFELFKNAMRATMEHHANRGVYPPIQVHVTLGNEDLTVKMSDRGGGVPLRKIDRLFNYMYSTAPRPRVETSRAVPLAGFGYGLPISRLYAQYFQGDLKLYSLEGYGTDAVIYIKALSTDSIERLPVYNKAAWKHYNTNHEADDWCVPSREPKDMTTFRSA
The data set is described as follows: Kinase panel assay (radiolabelled). It counts as biochemical. The note with it: control GW5074. The protocol: as §2

The target in data set [12] is T6, PDK4/PDHK4 (Homo sapiens, UniProt Q16654).
T6 construct: purchased Reaction Biology Corp
T6 sequence (Q16654 whole entry): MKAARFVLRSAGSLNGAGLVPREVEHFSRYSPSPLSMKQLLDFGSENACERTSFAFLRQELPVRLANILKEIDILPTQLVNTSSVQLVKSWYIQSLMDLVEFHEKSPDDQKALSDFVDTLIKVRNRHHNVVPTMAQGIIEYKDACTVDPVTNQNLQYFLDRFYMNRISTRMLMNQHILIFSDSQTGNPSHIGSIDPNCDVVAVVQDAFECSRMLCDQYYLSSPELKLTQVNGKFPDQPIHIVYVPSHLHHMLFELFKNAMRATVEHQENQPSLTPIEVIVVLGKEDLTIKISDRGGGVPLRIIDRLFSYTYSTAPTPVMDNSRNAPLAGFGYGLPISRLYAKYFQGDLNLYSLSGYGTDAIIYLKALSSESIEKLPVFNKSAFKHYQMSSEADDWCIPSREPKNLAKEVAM
The data set is described as follows: Kinase panel assay (radiolabelled). It counts as biochemical. The note with it: control GW5074. The protocol:
as §2

Data set [13] has as its target T7, PI4K2A (Homo sapiens, UniProt Q9BTU6).
T7 construct: purchased Reaction Biology Corp
The data set is described as follows: Kinase panel assay (lipid kinase). The note with it: control PIK-93. It counts as biochemical. The protocol: as §2

The target of data set [14] is T8, PI3KC3 (Homo sapiens, UniProt Q8NEB9).
T8 construct: purchased Reaction Biology Corp
The data set is described as follows: Kinase panel assay (lipid kinase). It counts as biochemical. The note with it: control PIK-93. The protocol:
as §2

The target in data set [15] is T9, PIP5K1A (Homo sapiens, UniProt Q99755).
T9 construct: purchased Reaction Biology Corp
T9 sequence (Q99755 whole entry): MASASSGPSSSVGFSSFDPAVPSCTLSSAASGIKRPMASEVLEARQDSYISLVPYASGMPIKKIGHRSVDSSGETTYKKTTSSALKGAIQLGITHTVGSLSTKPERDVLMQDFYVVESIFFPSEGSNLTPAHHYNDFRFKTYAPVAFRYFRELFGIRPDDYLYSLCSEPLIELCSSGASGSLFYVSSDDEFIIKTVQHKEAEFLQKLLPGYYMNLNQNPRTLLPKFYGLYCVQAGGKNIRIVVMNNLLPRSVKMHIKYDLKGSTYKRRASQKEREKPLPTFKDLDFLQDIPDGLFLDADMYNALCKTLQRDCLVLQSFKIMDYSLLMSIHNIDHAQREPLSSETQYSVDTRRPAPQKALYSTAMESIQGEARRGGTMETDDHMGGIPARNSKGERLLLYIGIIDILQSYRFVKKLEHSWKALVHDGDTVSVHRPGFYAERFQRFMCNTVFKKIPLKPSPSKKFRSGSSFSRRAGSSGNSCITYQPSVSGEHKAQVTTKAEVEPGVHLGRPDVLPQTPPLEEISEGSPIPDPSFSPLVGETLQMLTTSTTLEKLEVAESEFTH
Briefly: Kinase panel assay (lipid kinase). It counts as biochemical. The note with it: control PIK-93. The protocol: as §2

Data set [16] has as its target T10, PIP5K1C (Homo sapiens, UniProt O60331).
T10 construct: purchased Reaction Biology Corp
The data set is described as follows: Kinase panel assay (lipid kinase). The note with it: control PIK-93. It counts as biochemical. The protocol:
as §2

Like-named read-outs stand apart in the source and are kept apart here.

For orientation: IC50 means the midpoint of a concentration-inhibition curve. The term viability denotes a read-out of living cells in per cent, often relative to untreated cells. Low readings indicate a greater loss of cells, high ones better survival. By remaining activity is commonly meant the activity still measured, relative to the control. Low readings indicate little activity left, high ones much activity left.

T7 sequence (Q9BTU6 whole entry): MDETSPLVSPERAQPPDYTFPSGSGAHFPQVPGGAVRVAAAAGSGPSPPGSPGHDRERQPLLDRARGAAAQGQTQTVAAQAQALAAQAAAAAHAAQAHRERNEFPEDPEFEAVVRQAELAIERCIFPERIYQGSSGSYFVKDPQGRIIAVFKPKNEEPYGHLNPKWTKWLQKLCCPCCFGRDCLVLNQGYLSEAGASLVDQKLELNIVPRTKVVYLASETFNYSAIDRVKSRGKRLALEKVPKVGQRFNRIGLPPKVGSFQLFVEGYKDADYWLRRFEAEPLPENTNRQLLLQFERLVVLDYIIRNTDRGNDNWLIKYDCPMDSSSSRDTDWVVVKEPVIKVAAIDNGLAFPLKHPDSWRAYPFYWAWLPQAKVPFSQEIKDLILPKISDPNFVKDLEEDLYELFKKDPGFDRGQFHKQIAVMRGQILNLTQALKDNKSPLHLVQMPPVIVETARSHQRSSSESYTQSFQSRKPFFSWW

`O=C1C=CC2(C=C1)OCC(Cc1ccccc1CS(=O)(=O)c1ccccc1)C(=O)N2c1ccccc1` (stereo not shown) [1b]: in data set [1], the “Cell Viability (%)” value worked out at 84 ± 3%. Moreover, the “% GSK3β Residual Activity” value in data set [2] came to 91.0 ± 12.6%. Also, the IC50 in [3] stood at 980 ± 30 nM.
On to `CCCCCCCCCCCCCCCCn1cc[n+](Cc2ccccc2)c1C` [NH125, reference compound], for which, in data set [4], half-maximal inhibition (IC50) required 5.86 µM.
With `Oc1cccc(-c2nc(N3CCOCC3)c3oc4ncccc4c3n2)c1` [PI-103, reference compound], in data set [5], the IC50 was determined as 4.8e-07 M.
Regarding `O=C1C=CC2(C=C1)OCC(Cc1cn(-c3ccccc3)nn1)C(=O)N2c1ccccc1` (stereo not shown) [2a, 5-Phenyl-3-((1-phenyl-1H-1,2,3-triazol-4-yl)methyl)-1-oxa-5-azaspiro[5.5]undeca-7,10-diene-4,9-dione], the viability at 24 h, 1 µM in [6] (1 μM compound) was 92.9 ± 0.24%. Further, the viability at 24 h, 5 µM in data set [6] (5 μM compound, % of LPS) worked out at 81 ± 3%. The “COX-2 expression level” value in data set [7] was “limited potency and efficacy”. For the same compound, the remaining activity at 10 µM in [2] amounted to 62.3 ± 2.3%. Besides, in data set [8], the “iNOS expression level” value was “limited potency and efficacy”. In addition, the IC50 in data set [3] (Mus musculus) was 670 ± 50 nM.
As to `O=C1Nc2ccc(I)cc2/C1=C/c1cc(Br)c(O)c(Br)c1` [GW5074, reference compound], the IC50 in data set [9] came out at 3.28 µM; in data set [10], 1820 nM; in [11], 12.1 µM; in data set [12] it was 2120 nM.
`CC(=O)Nc1nc(C)c(-c2ccc(Cl)c(S(=O)(=O)NCCO)c2)s1` [PIK-93, reference compound]: the IC50 was 18.5 µM in [13], 75.7 nM in data set [14], 61.8 µM in data set [15] and 17.5 µM in [16].

Source of the values: PMC7719162, “Positioning of an unprecedented spiro[5.5]undeca ring system into kinase inhibitor space” (Scientific Reports, 2020).
